Key:
[1] = test system: Ramos cells; experiment: cytotoxicity in Ramos cells; type: cell-based; conditions: Homo sapiens
Protocol: The compounds listed in Table 5 were tested for cytotoxicity in Ramos cells. The assay was conducted as described in K. M. Johnson et al. Chemistry & Biology 2005, 12, 485-496.

[2] = test system: A549/ATCC; experiment: cancer cell growth inhibition (SRB); type: cell-based, human; conditions: Non-Small Cell Lung Cancer
[3] = test system: EKVX; experiment: cancer cell growth inhibition (SRB); type: cell-based, human; conditions: Non-Small Cell Lung Cancer
[4] = test system: HOP-62; experiment: cancer cell growth inhibition (SRB); type: cell-based, human; conditions: Non-Small Cell Lung Cancer
[5] = test system: HOP-92; experiment: cancer cell growth inhibition (SRB); type: cell-based, human; conditions: Non-Small Cell Lung Cancer
[6] = test system: NCI-H226; experiment: cancer cell growth inhibition (SRB); type: cell-based, human; conditions: Non-Small Cell Lung Cancer
[7] = test system: NCI-H23; experiment: cancer cell growth inhibition (SRB); type: cell-based, human; conditions: Non-Small Cell Lung Cancer
[8] = test system: NCI-H322M; experiment: cancer cell growth inhibition (SRB); type: cell-based, human; conditions: Non-Small Cell Lung Cancer
[9] = test system: NCI-H460; experiment: cancer cell growth inhibition (SRB); type: cell-based, human; conditions: Non-Small Cell Lung Cancer
[10] = test system: NCI-H522; experiment: cancer cell growth inhibition (SRB); type: cell-based, human; conditions: Non-Small Cell Lung Cancer
[11] = test system: COLO 205; experiment: cancer cell growth inhibition (SRB); type: cell-based, human; conditions: Colon Cancer
[12] = test system: HCC-2998; experiment: cancer cell growth inhibition (SRB); type: cell-based, human; conditions: Colon Cancer
[13] = test system: HCT-116; experiment: cancer cell growth inhibition (SRB); type: cell-based, human; conditions: Colon Cancer
[14] = test system: HCT-15; experiment: cancer cell growth inhibition (SRB); type: cell-based, human; conditions: Colon Cancer
[15] = test system: HT29; experiment: cancer cell growth inhibition (SRB); type: cell-based, human; conditions: Colon Cancer
[16] = test system: KM12; experiment: cancer cell growth inhibition (SRB); type: cell-based, human; conditions: Colon Cancer
[17] = test system: SW-620; experiment: cancer cell growth inhibition (SRB); type: cell-based, human; conditions: Colon Cancer
[18] = test system: BT-549; experiment: cancer cell growth inhibition (SRB); type: cell-based, human; conditions: Breast Cancer
[19] = test system: HS 578T; experiment: cancer cell growth inhibition (SRB); type: cell-based, human; conditions: Breast Cancer
[20] = test system: MCF7; experiment: cancer cell growth inhibition (SRB); type: cell-based, human; conditions: Breast Cancer
[21] = test system: MDA-MB-231/ATCC; experiment: cancer cell growth inhibition (SRB); type: cell-based, human; conditions: Breast Cancer
[22] = test system: MDA-MB-435; experiment: cancer cell growth inhibition (SRB); type: cell-based, human; conditions: Breast Cancer
[23] = test system: NCI/ADR-RES; experiment: cancer cell growth inhibition (SRB); type: cell-based, human; conditions: Breast Cancer
[24] = test system: T-47D; experiment: cancer cell growth inhibition (SRB); type: cell-based, human; conditions: Breast Cancer
[25] = test system: IGROV1; experiment: cancer cell growth inhibition (SRB); type: cell-based, human; conditions: Ovarian Cancer
[26] = test system: OVCAR-3; experiment: cancer cell growth inhibition (SRB); type: cell-based, human; conditions: Ovarian Cancer
[27] = test system: OVCAR-4; experiment: cancer cell growth inhibition (SRB); type: cell-based, human; conditions: Ovarian Cancer
[28] = test system: OVCAR-5; experiment: cancer cell growth inhibition (SRB); type: cell-based, human; conditions: Ovarian Cancer
[29] = test system: OVCAR-8; experiment: cancer cell growth inhibition (SRB); type: cell-based, human; conditions: Ovarian Cancer
[30] = test system: SK-OV-3; experiment: cancer cell growth inhibition (SRB); type: cell-based, human; conditions: Ovarian Cancer
[31] = test system: CCRF-CEM; experiment: cancer cell growth inhibition (SRB); type: cell-based, human; conditions: Leukemia
[32] = test system: HL-60(TB); experiment: cancer cell growth inhibition (SRB); type: cell-based, human; conditions: Leukemia
[33] = test system: K-562; experiment: cancer cell growth inhibition (SRB); type: cell-based, human; conditions: Leukemia
[34] = test system: MOLT-4; experiment: cancer cell growth inhibition (SRB); type: cell-based, human; conditions: Leukemia
[35] = test system: RPMI-8226; experiment: cancer cell growth inhibition (SRB); type: cell-based, human; conditions: Leukemia
[36] = test system: SR; experiment: cancer cell growth inhibition (SRB); type: cell-based, human; conditions: Leukemia
[37] = test system: 786-0; experiment: cancer cell growth inhibition (SRB); type: cell-based, human; conditions: Renal Cancer
[38] = test system: A498; experiment: cancer cell growth inhibition (SRB); type: cell-based, human; conditions: Renal Cancer
[39] = test system: ACHN; experiment: cancer cell growth inhibition (SRB); type: cell-based, human; conditions: Renal Cancer
[40] = test system: CAKI-1; experiment: cancer cell growth inhibition (SRB); type: cell-based, human; conditions: Renal Cancer
[41] = test system: RXF 393; experiment: cancer cell growth inhibition (SRB); type: cell-based, human; conditions: Renal Cancer
[42] = test system: SN12C; experiment: cancer cell growth inhibition (SRB); type: cell-based, human; conditions: Renal Cancer
[43] = test system: TK-10; experiment: cancer cell growth inhibition (SRB); type: cell-based, human; conditions: Renal Cancer
[44] = test system: UO-31; experiment: cancer cell growth inhibition (SRB); type: cell-based, human; conditions: Renal Cancer
[45] = test system: LOXIMVI; experiment: cancer cell growth inhibition (SRB); type: cell-based, human; conditions: Melanoma
[46] = test system: M14; experiment: cancer cell growth inhibition (SRB); type: cell-based, human; conditions: Melanoma
[47] = test system: MALME-3M; experiment: cancer cell growth inhibition (SRB); type: cell-based, human; conditions: Melanoma
[48] = test system: SK-MEL-2; experiment: cancer cell growth inhibition (SRB); type: cell-based, human; conditions: Melanoma
[49] = test system: SK-MEL-28; experiment: cancer cell growth inhibition (SRB); type: cell-based, human; conditions: Melanoma
[50] = test system: SK-MEL-5; experiment: cancer cell growth inhibition (SRB); type: cell-based, human; conditions: Melanoma
[51] = test system: UACC-257; experiment: cancer cell growth inhibition (SRB); type: cell-based, human; conditions: Melanoma
[52] = test system: UACC-62; experiment: cancer cell growth inhibition (SRB); type: cell-based, human; conditions: Melanoma
[53] = test system: DU-145; experiment: cancer cell growth inhibition (SRB); type: cell-based, human; conditions: Prostate Cancer
[54] = test system: PC-3; experiment: cancer cell growth inhibition (SRB); type: cell-based, human; conditions: Prostate Cancer
[55] = test system: SF-268; experiment: cancer cell growth inhibition (SRB); type: cell-based, human; conditions: CNS Cancer
[56] = test system: SF-295; experiment: cancer cell growth inhibition (SRB); type: cell-based, human; conditions: CNS Cancer
[57] = test system: SF-539; experiment: cancer cell growth inhibition (SRB); type: cell-based, human; conditions: CNS Cancer
[58] = test system: SNB-19; experiment: cancer cell growth inhibition (SRB); type: cell-based, human; conditions: CNS Cancer
[59] = test system: SNB-75; experiment: cancer cell growth inhibition (SRB); type: cell-based, human; conditions: CNS Cancer
[60] = test system: U251; experiment: cancer cell growth inhibition (SRB); type: cell-based, human; conditions: CNS Cancer

O=C1Nc2ccc(Cl)cc2C(c2ccc(N3CCNCC3)nc2)=NC1Cc1ccccc1Cl (stereo not drawn) [Compound V-23]
EC50 [1]: ≤ 5 µM
growth inhibition of the cancer cells [2]: +++ (at least 75% growth inhibition of the cancer cells)
growth inhibition of the cancer cells [3]: +++ (at least 75% growth inhibition of the cancer cells)
growth inhibition of the cancer cells [4]: +++ (at least 75% growth inhibition of the cancer cells)
growth inhibition of the cancer cells [5]: ++ (40%-75% growth inhibition of the cancer cells)
growth inhibition of the cancer cells [6]: + (less than 40% growth inhibition of the cancer cells)
growth inhibition of the cancer cells [7]: ++ (40%-75% growth inhibition of the cancer cells)
growth inhibition of the cancer cells [8]: + (less than 40% growth inhibition of the cancer cells)
growth inhibition of the cancer cells [9]: +++ (at least 75% growth inhibition of the cancer cells)
growth inhibition of the cancer cells [10]: +++ (at least 75% growth inhibition of the cancer cells)
growth inhibition of the cancer cells [11]: ++ (40%-75% growth inhibition of the cancer cells)
growth inhibition of the cancer cells [12]: +++ (at least 75% growth inhibition of the cancer cells)
growth inhibition of the cancer cells [13]: +++ (at least 75% growth inhibition of the cancer cells)
growth inhibition of the cancer cells [14]: +++ (at least 75% growth inhibition of the cancer cells)
growth inhibition of the cancer cells [15]: +++ (at least 75% growth inhibition of the cancer cells)
growth inhibition of the cancer cells [16]: +++ (at least 75% growth inhibition of the cancer cells)
growth inhibition of the cancer cells [17]: +++ (at least 75% growth inhibition of the cancer cells)
growth inhibition of the cancer cells [18]: +++ (at least 75% growth inhibition of the cancer cells)
growth inhibition of the cancer cells [19]: ++ (40%-75% growth inhibition of the cancer cells)
growth inhibition of the cancer cells [20]: +++ (at least 75% growth inhibition of the cancer cells)
growth inhibition of the cancer cells [21]: +++ (at least 75% growth inhibition of the cancer cells)
growth inhibition of the cancer cells [22]: +++ (at least 75% growth inhibition of the cancer cells)
growth inhibition of the cancer cells [23]: + (less than 40% growth inhibition of the cancer cells)
growth inhibition of the cancer cells [24]: ++ (40%-75% growth inhibition of the cancer cells)
growth inhibition of the cancer cells [25]: +++ (at least 75% growth inhibition of the cancer cells)
growth inhibition of the cancer cells [26]: +++ (at least 75% growth inhibition of the cancer cells)
growth inhibition of the cancer cells [27]: ++ (40%-75% growth inhibition of the cancer cells)
growth inhibition of the cancer cells [28]: +++ (at least 75% growth inhibition of the cancer cells)
growth inhibition of the cancer cells [29]: ++ (40%-75% growth inhibition of the cancer cells)
growth inhibition of the cancer cells [30]: ++ (40%-75% growth inhibition of the cancer cells)
growth inhibition of the cancer cells [31]: ++ (40%-75% growth inhibition of the cancer cells)
growth inhibition of the cancer cells [32]: +++ (at least 75% growth inhibition of the cancer cells)
growth inhibition of the cancer cells [33]: +++ (at least 75% growth inhibition of the cancer cells)
growth inhibition of the cancer cells [34]: ++ (40%-75% growth inhibition of the cancer cells)
growth inhibition of the cancer cells [35]: ++ (40%-75% growth inhibition of the cancer cells)
growth inhibition of the cancer cells [36]: ++ (40%-75% growth inhibition of the cancer cells)
growth inhibition of the cancer cells [37]: +++ (at least 75% growth inhibition of the cancer cells)
growth inhibition of the cancer cells [38]: + (less than 40% growth inhibition of the cancer cells)
growth inhibition of the cancer cells [39]: +++ (at least 75% growth inhibition of the cancer cells)
growth inhibition of the cancer cells [40]: +++ (at least 75% growth inhibition of the cancer cells)
growth inhibition of the cancer cells [41]: +++ (at least 75% growth inhibition of the cancer cells)
growth inhibition of the cancer cells [42]: +++ (at least 75% growth inhibition of the cancer cells)
growth inhibition of the cancer cells [43]: +++ (at least 75% growth inhibition of the cancer cells)
growth inhibition of the cancer cells [44]: +++ (at least 75% growth inhibition of the cancer cells)
growth inhibition of the cancer cells [45]: +++ (at least 75% growth inhibition of the cancer cells)
growth inhibition of the cancer cells [46]: +++ (at least 75% growth inhibition of the cancer cells)
growth inhibition of the cancer cells [47]: +++ (at least 75% growth inhibition of the cancer cells)
growth inhibition of the cancer cells [48]: ++ (40%-75% growth inhibition of the cancer cells)
growth inhibition of the cancer cells [49]: +++ (at least 75% growth inhibition of the cancer cells)
growth inhibition of the cancer cells [50]: +++ (at least 75% growth inhibition of the cancer cells)
growth inhibition of the cancer cells [51]: +++ (at least 75% growth inhibition of the cancer cells)
growth inhibition of the cancer cells [52]: ++ (40%-75% growth inhibition of the cancer cells)
growth inhibition of the cancer cells [53]: +++ (at least 75% growth inhibition of the cancer cells)
growth inhibition of the cancer cells [54]: ++ (40%-75% growth inhibition of the cancer cells)
growth inhibition of the cancer cells [55]: ++ (40%-75% growth inhibition of the cancer cells)
growth inhibition of the cancer cells [56]: +++ (at least 75% growth inhibition of the cancer cells)
growth inhibition of the cancer cells [57]: +++ (at least 75% growth inhibition of the cancer cells)
growth inhibition of the cancer cells [58]: ++ (40%-75% growth inhibition of the cancer cells)
growth inhibition of the cancer cells [59]: ++ (40%-75% growth inhibition of the cancer cells)
growth inhibition of the cancer cells [60]: +++ (at least 75% growth inhibition of the cancer cells)

Source: US8604023B2, “1,4-benzodiazepinone compounds and their use in treating cancer” (The Regents of the University of Michigan, priority 2009, dated 2013)
